From ChEMBL document CHEMBL1146665 (Bioorg Med Chem Lett, 2004) come the findings set out here.

For orientation: Ki means a measure of affinity in units of concentration, obtained from inhibition or displacement. A higher Ki goes with a looser hold on the target. By EC50 is commonly meant the midpoint of the concentration-response curve. Read a high EC50 as lower potency in that assay.

A value given as a limit tells only on which side of the number the result lay.

Assay [1] has as its target T1, Melatonin receptor type 1B (Homo sapiens, UniProt P49286).
T1 sequence (P49286 whole entry): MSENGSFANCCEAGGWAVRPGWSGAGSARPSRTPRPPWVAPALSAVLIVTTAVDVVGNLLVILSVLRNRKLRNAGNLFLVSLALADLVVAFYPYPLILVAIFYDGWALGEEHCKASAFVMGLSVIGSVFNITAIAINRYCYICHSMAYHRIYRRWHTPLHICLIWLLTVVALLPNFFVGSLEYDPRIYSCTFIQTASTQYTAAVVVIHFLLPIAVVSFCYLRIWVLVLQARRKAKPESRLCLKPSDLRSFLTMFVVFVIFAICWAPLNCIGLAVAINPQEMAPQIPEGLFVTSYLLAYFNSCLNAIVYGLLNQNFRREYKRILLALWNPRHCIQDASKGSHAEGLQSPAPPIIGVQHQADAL
The experiment in a line: Binding affinity towards human melatonin receptor type 1B.

Assay [2] deals with Melatonin receptor type 1A (Homo sapiens, UniProt P48039). The experiment in a line: Binding affinity towards human melatonin receptor type 1A.
The subject of a further assay is NIH3T3. The experiment in a line: Inhibition of forskolin-stimulated cAMP accumulation in NIH3T3 cells expressing MT2 receptor. The following applies: Mus musculus. It is filed as functional, cell-based. (cAMP levels reflect the balance of adenylyl cyclase and phosphodiesterase activity.)

Sequence of Melatonin receptor type 1A (P48039 whole entry): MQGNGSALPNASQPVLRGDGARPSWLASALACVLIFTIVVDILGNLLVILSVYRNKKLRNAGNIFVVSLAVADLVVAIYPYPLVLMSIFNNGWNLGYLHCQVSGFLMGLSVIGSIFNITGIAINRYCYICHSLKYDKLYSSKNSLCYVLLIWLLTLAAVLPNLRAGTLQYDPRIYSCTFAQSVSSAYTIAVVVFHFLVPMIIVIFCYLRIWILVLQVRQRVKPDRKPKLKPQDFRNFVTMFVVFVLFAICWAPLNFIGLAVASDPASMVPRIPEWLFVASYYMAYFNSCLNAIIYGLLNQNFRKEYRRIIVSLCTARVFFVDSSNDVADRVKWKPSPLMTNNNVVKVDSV

Regarding `CCCC(=O)Nc1ccc(N(C)c2cccc(OC)c2)cc1`, the figures for the Ki in assay [1] and in assay [2] were 0.1 nM and 1.1 nM, respectively.
Taken in the same sequence, the figures for `CCC(=O)Nc1ccc(Oc2cccc(OC)c2)cc1` were 6.8 nM and 300 nM.
Taken in the same sequence, the figures for `COc1cccc(Nc2ccc(NC(C)=O)cc2)c1` were 4.2 nM and 84 nM.
Taken in the same sequence, the figures for `CCCC(=O)Nc1ccc(Oc2ccccc2OC)cc1` were 108 nM and over 500 nM.
Turning to `CCCC(=O)Nc1cccc(Oc2cccc(OC)c2)c1`, the values for the Ki in assay [1] and in assay [2] were 26.8 nM and over 500 nM, respectively.
Taken in the same sequence, the figures for `CCC(=O)Nc1ccc(Nc2cccc(OC)c2)cc1` were 1.8 nM and 61 nM.
Taken in the same sequence, the figures for `CCCC(=O)Nc1ccc(Nc2cccc(OC)c2)cc1` were 0.39 nM and 31 nM.
With `CCOC(=O)Nc1ccc(N(C)c2cccc(OC)c2)cc1`, the Ki in assay [1] turned out to be 7.2 nM; in assay [2], 34 nM.
Taken in the same sequence, the figures for `C/C=C/C(=O)Nc1ccc(Oc2cccc(OC)c2)cc1` were 2.1 nM and 98 nM.
Take `COc1cccc(N(C)c2ccc(NC(=O)C3CC3)cc2)c1`: the Ki in assay [1] was found to be 4.8 nM; in assay [2], 12 nM.
`CCCC(=O)Nc1ccc(Oc2cccc(OC)c2)cc1` showed an EC50 with NIH3T3 of 1.07 nM. The Ki amounted to 0.75 nM in assay [1] and 63 nM in assay [2].
Take `CCCC(=O)Nc1ccc(S(=O)(=O)c2cccc(OC)c2)cc1`: the figures for the inhibitory constant (Ki) in assay [1] and in assay [2] were 10 nM and over 500 nM, respectively.
In assay [2], `CCCCC(=O)Nc1ccc(Oc2cccc(OC)c2)cc1` had a Ki of over 500 nM.
As for `COCC(=O)Nc1ccc(Oc2cccc(OC)c2)cc1`, the results for the inhibitory constant (Ki) in assay [1] and in assay [2] were 5.9 nM and 180 nM, respectively.
Turning to `COc1cccc(Oc2ccc(NC(=O)C3CC3)cc2)c1`, the results for the Ki in assay [1] and in assay [2] were 13 nM and 99 nM, respectively.
Taken in the same sequence, the figures for `CCCC(=O)Nc1ccc(Oc2cccc3c2CCO3)cc1` were 0.68 nM and 18 nM.
Taken in the same sequence, the figures for `COc1cccc(Oc2ccc(NC(=O)C(C)C)cc2)c1` were 122 nM and over 500 nM.
Taken in the same sequence, the figures for `COc1cccc(Oc2ccc(NC(=O)CC(C)C)cc2)c1` were 15 nM and over 500 nM.
As for `COc1cccc(Nc2ccc(NC(=O)C3CC3)cc2)c1`, the values for the inhibition constant (Ki) in assay [1] and in assay [2] were 64 nM and 61 nM, respectively.
Taken in the same sequence, the figures for `CCCC(=O)Nc1ccc(Sc2cccc(OC)c2)cc1` were 0.19 nM and 29 nM.
Taken in the same sequence, the figures for `CCNC(=O)Nc1ccc(Oc2cccc(OC)c2)cc1` were 250 nM and over 500 nM.
Taken in the same sequence, the figures for `CCCC(=O)Nc1ccc(N(C)c2cccc3c2CCO3)cc1` were 0.49 nM and 36 nM.
As for `CCC(=O)Nc1ccc(N(C)c2cccc(OC)c2)cc1`, the Ki in assay [1] was 0.17 nM; in assay [2] it was 1 nM.
Taken in the same sequence, the figures for `CCCC(=O)Nc1ccc(Cc2cccc(OC)c2)cc1` were 0.12 nM and 10.9 nM.
Taken in the same sequence, the figures for `COc1cccc(Nc2ccc(NC(=O)C(C)C)cc2)c1` were 84 nM and over 500 nM.
Taken in the same sequence, the figures for `CCCC(=O)Nc1ccc(Cc2cccc3occc23)cc1` were 0.78 nM and 92 nM.
For `C#CCC(=O)Nc1ccc(Oc2cccc(OC)c2)cc1`, the Ki in assay [1] was 110 nM; in assay [2] it was over 500 nM.
In the case of `CCOC(=O)Nc1ccc(Nc2cccc(OC)c2)cc1`, the values for the inhibitory constant (Ki) in assay [1] and in assay [2] were 150 nM and over 500 nM, respectively.
Taken in the same sequence, the figures for `COc1cccc(N(C)c2ccc(NC(=O)C(C)C)cc2)c1` were 5.5 nM and 106 nM.
Take `CCCC(=O)Nc1ccc(Nc2cccc3c2CCO3)cc1`: the figures for the Ki in assay [1] and in assay [2] were 39 nM and over 500 nM, respectively.
Taken in the same sequence, the figures for `CCCC(=O)Nc1ccc(Oc2cccc3c2OCCO3)cc1` were 4.7 nM and 92 nM.
Taken in the same sequence, the figures for `COc1cccc(Oc2ccc(NC(C)=O)cc2)c1` were 4.1 nM and 84 nM.
Taken in the same sequence, the figures for `CCCC(=O)Nc1ccc(Oc2ccc(OC)cc2)cc1` were over 400 nM and over 500 nM.
With `COc1cccc(N(C)c2ccc(NC(C)=O)cc2)c1`, the Ki was determined as 0.23 nM in assay [1] and 0.05 nM in assay [2].
Taken in the same sequence, the figures for `CCCC(=O)Nc1ccc(Cc2cccc3c2CCO3)cc1` were 0.71 nM and 41 nM.
Taken in the same sequence, the figures for `CCCC(=O)Nc1ccc(C(=O)c2cccc(OC)c2)cc1` were 33 nM and over 500 nM.
Consider `CCCC(=O)Nc1ccccc1Oc1cccc(OC)c1`, for which the values for the Ki in assay [1] and in assay [2] were 130 nM and over 500 nM, respectively.
